We go through 9 compounds from ChEMBL document CHEMBL1136384, “Design, synthesis and biological evaluation of hetaryl-nucleoside derivatives as inhibitors of chitin synthase” (Bioorg Med Chem Lett, 2003).

Each structure is given as a SMILES string.

Test [1] in a line: Compound tested for the inhibition of chitin synthase using Saccharomyces cerevisiae cells (X2180 strain).
Test [2] concerns Aspergillus fumigatus. Kind of test: Inhibitory activity tested against Aspergillus fumigatus at 256 ug/mL concentration. It counts as functional.
Test [3] concerns Candida albicans. Nature of the test: Inhibitory activity tested against Candida albicans at 256 ug/mL concentration. It counts as functional.
Test [4] concerns Cryptococcus neoformans. Kind of test: Inhibitory activity tested against Cryptococcus neoformans at 256 ug/mL concentration. In kind it is functional.
Test [5] concerns Saccharomyces cerevisiae. Kind of test: Inhibitory activity tested against Saccharomyces cerevisiae at 256 ug/mL concentration. It counts as functional.

By IC50 is commonly meant the point on the concentration scale where inhibition reaches its midpoint. Broadly, the Ki is a dissociation constant, usually derived from enzyme kinetics or from competition with a known ligand. `O=c1ccn([C@@H]2O[C@H](CO[C@@H]3O[C@@H](CO)[C@@H](O)[C@H](OCc4ccc5ccccc5n4)[C@@H]3O)[C@@H](O)[C@H]2O)c(=O)[nH]1`: in test [1], the half-inhibitory concentration (IC50) was 800 µM and the inhibition constant Ki was 250 µM.

Take `O=C(NC[C@H]1OC(n2ccc(=O)[nH]c2=O)[C@H](O)[C@@H]1O)[C@H](O)[C@@H](O)C(=O)OCc1ccc(O)cn1` (stereo partly specified): in test [1], the IC50 was found to be 3200 µM.

As for `O=C(NC[C@@H]1OC(n2ccc(=O)[nH]c2=O)[C@H](O)[C@@H]1O)[C@H](O)[C@@H](O)C(=O)OCc1ccc2ccccc2n1` (stereo partly specified), in test [1], inhibition was half-maximal at 2000 µM (IC50) and the affinity corresponds to a Ki of 800 µM.

In test [1], `O=C(CC(=O)OC[C@H]1OC(n2ccc(=O)[nH]c2=O)[C@H](O)[C@@H]1O)OCc1ccc(O)cn1` (stereo partly specified) came in with an IC50 of 2800 µM. This lies in the millimolar range.

Usually inhibition stands for the change of the read-out against control, counted positive when it falls. On to `O=c1ccn([C@@H]2O[C@H](CO[C@@H]3O[C@@H](COCc4ccc5ccccc5n4)[C@@H](O)[C@H](O)[C@@H]3O)[C@@H](O)[C@H]2O)c(=O)[nH]1`, for which the values for the inhibition at 256 µg/mL in test [2], in test [3] and in test [4] were 30%, 30% and 80%, respectively. The compound further returned a 50% inhibitory concentration (IC50) in test [1] of 3200 µM. In test [5], the inhibition turned out to be 30%.

With `C[C@@H]([C@H](N)C(=O)N[C@H](C(=O)O)[C@H]1O[C@@H](n2ccc(=O)[nH]c2=O)[C@H](O)[C@@H]1O)[C@H](O)c1ccc(O)cn1` (stereo in doubt) [NIKKOMYCIN], in test [1], it took 0.5 µM to reach half-maximal inhibition (IC50) and the inhibition constant (Ki) is 0.34 µM.

`C[C@@H]([C@H](N)C(=O)N[C@H](C(=O)O)[C@H]1O[C@@H](n2ccc(=O)[nH]c2=O)[C@H](O)[C@@H]1O)[C@H](O)c1ccc(O)cn1` [NIKKOMYCIN]: inhibition in test [1] was half-maximal at 0.34 µM (IC50).

The compound `O=c1ccn([C@@H]2O[C@H](CO[C@@H]3O[C@@H](CO)[C@@H](OCc4ccc5ccccc5n4)[C@H](O)[C@@H]3O)[C@@H](O)[C@H]2O)c(=O)[nH]1` showed an IC50 in test [1] of 2000 µM.

In turn, `COCOc1ccc(COC(=O)CC(=O)OC[C@H]2OC(n3ccc(=O)[nH]c3=O)[C@H](O)[C@@H]2O)nc1` (stereo partly specified) came in with an IC50 in test [1] of 10800 µM. This IC50 is about 5.4-fold higher than that of the compound before.
